Source: US20230174538A1, “Tricyclic heterocycles” (Merck Patent GmbH, priority 2020, published 2023)

Test system: YAP-TEAD interaction
Assay: SK-HEP-1 reporter assay (8xTEAD responsive elements driving NanoLuc luciferase)
Format: cell-based
Details: Homo sapiens, SK-HEP1, SK-HEP-1 reporter assay
Experimental: To identify inhibitors of YAP-TEAD interaction, 8×TEAD responsive elements driving the NanoLuc® luciferase gene were stably integrated into SK-HEP-1 cells (ECACC #: 91091816).
For the assay, cells were treated in duplicates with the test compounds in a 10-point dose, with the top concentration starting at 30 μM (final concentration in assay). After a 24 hour incubation at 37° C., 95% rH, and 5% CO2, a luciferase substrate/lysis reagent mix (NanoGlo™, Promega) was added to the cells, allowing the quantification of cellular luciferase activity.
Cell Media: The cells were cultured in the following media: MEM, +10% FBS, +1× GlutaMAX, +1 mM Sodium-Pyruvate, +100 μM Non-essential amino acids, +0.1 mg/ml Hygromycin. The media used for the assay was: MEM (w/o Phenol Red), +10% FBS, +1× GlutaMAX, +1 mM Sodium-Pyruvate, +100 μM Non-essential amino acids, +0.5% Pen/Strep
Reagents: The reagents used are listed below:
Cell culture: The cells were examined using an inverted microscope to check for health and cell density. To dissociate adherent cells, the monolayer of cells was washed once with pre-warmed PBS. After removing the PBS, 3 ml pre-warmed Accutase® was added to a F75 flask, dispersed evenly and the flask was allowed to sit in incubator for ˜4-5 minutes.
When a single cell suspension was obtained, 7 ml of prewarmed growth media was added and resuspended with the cells. The cell suspension was transferred to a sterile 15 ml conical centrifuge tube, and spun for 5 min at 300×g, RT. The supernatant was discarded and the pellet was resuspended in 10 ml of pre-warmed growth media.
The total cell count was determined, and 20 μl of the desired cell number was added to each well of a 384 well plate using a Multidrop Combi. The plates were then incubated for 24 hours at 37° C., 95% rH, and 5% CO2.
Compound treatment: 24 hours after seeding, the cells were treated with compounds.
A 1:333 dilution of compounds, diluted in DMSO, was made to get a final concentration of 0.3% DMSO per well. To transfer the compounds to the assay plate, 120 nl was shot from Labcyte low dead volume plates to the cell plates containing 20 μl media/well with the ECHO 555 liquid handling system.
After treatment, the cells were fed with 20 μl fresh pre-warmed assay media using a Multidrop combi.
The assay plates were then incubated for another 24 h at 37° C., 95% rH, and 5% CO2.
Luciferase readout: 24 h after treatment, the plates were taken out of the incubator and were allowed to equilibrate to RT. 30 μl of NanoGlo® reagent was added to the plates in the dark. Plates were shaken for 20 min on a Teleshake (˜1500 rpm) in the dark. The luminescence was then measured using an EnVision microplate reader. The IC50 values were generated using Genedata Screener®.

SMILES | IC50 [nM]
CN(Cc1noc(C2CC2)n1)C(=O)c1ccc2c(c1)c1cn(C)nc1n2-c1ccc(C(F)(F)F)cc1 [B137^] | > 10000
CCCn1ncnc1CNC(=O)c1ccc2c(c1)c1cn(C)nc1n2-c1ccc(C(F)(F)F)cc1 [B138^] | 100 to 10000
Cn1cc2c3cc(C(=O)NC[C@H]4C[C@H](n5cncn5)C4)ccc3n(-c3ccc(C(F)(F)F)cc3)c2n1 [B140^] | > 10000
Cn1cc2c3cc(C(=O)NCCCc4cc[nH]n4)ccc3n(-c3ccc(C(F)(F)F)cc3)c2n1 [B142^] | 100 to 10000
Cn1cc2c3cc(C(=O)NC4CCCN(CCF)C4)ccc3n(-c3ccc(C(F)(F)F)cc3)c2n1 (centres unmarked) [B143^] | > 10000
Cc1nc(CNC(=O)c2ccc3c(c2)c2cn(C)nc2n3-c2ccc(C(F)(F)F)cc2)n[nH]1 [B144^] | 10 to 100
Cc1c[nH]c(C(NC(=O)c2ccc3c(c2)c2cn(C)nc2n3-c2ccc(C(F)(F)F)cc2)C2CC2)n1 (centres unmarked) [B145^] | > 10000
O=C(O)c1ccc2c(c1)c1cn(Cc3ccccc3)cc1n2S(=O)(=O)c1ccccc1 [Example 1, 4-(benzenesulfonyl)-2-benzyl-2H,4H-pyrrolo[3,4-b]indole-7-carboxylic acid] | 100 to 10000
O=C(O)c1ccc2c(c1)c1cn(Cc3ccccc3)cc1n2-c1ccccc1 [Example 3, 2-Benzyl-4-phenyl-2H,4H-pyrrolo[3,4-b]indole-7-carboxylic acid] | 1 to 10
Cn1cc2c(n1)c1cc(C(=O)O)ccc1n2-c1ccc(C(F)(F)F)cc1 [Example 4, 2-methyl-4-[4-(trifluoromethyl)phenyl]-2H,4H-pyrazolo[4,3-b]indole-7-carboxylic acid] | 100 to 10000
Cn1cc2c3cc(C(=O)O)ccc3n(-c3cccc(F)c3)c2n1 [Example 7, 8-(3-fluorophenyl)-2-methyl-2H,8H-pyrazolo[3,4-b]indole-5-carboxylic acid] | 10 to 100
Cn1cc2c3cc(C(=O)O)ccc3n(Cc3cccc(C(F)(F)F)c3)c2n1 [Example 8, 2-Methyl-8-{[3-(trifluoromethyl)phenyl]methyl}-2H,8H-pyrazolo[3,4-b]indole-5-carboxylic acid] | 100 to 10000
Cn1cc2c3cc(C(=O)O)ccc3n(CC3CCCCC3)c2n1 [Example 11, 8-(cyclohexylmethyl)-2-methyl-2H,8H-pyrazolo[3,4-b]indole-5-carboxylic acid] | 100 to 10000
Cn1cc2c3cc(C(=O)O)ccc3n(-c3ccc(Cl)cc3)c2n1 [Example 13, 8-(4-chlorophenyl)-2-methyl-2H,8H-pyrazolo[3,4-b]indole-5-carboxylic acid] | 100 to 10000
Cn1cc2c3cc(NC(=O)CCl)ccc3n(-c3ccc(C(F)(F)F)cc3)c2n1 [Example 23, 2-chloro-N-[2-methyl-8-[4-(trifluoromethyl)phenyl]pyrazolo[3,4-b]indol-5-yl]acetamide] | > 10000
Cn1cc2c(n1)c1cc(S(C)(=O)=O)ccc1n2-c1ccc(C(F)(F)F)cc1 [Example 33, 7-methanesulfonyl-2-methyl-4-[4-(trifluoromethyl)phenyl]-2H,4H-pyrazolo[4,3-b]indole] | 100 to 10000

Other lines, results leading:

IC50 [nM] | SMILES
10 to 100 | CCC(NC(=O)c1ccc2c(c1)c1cn(C)nc1n2-c1ccc(C(F)(F)F)cc1)c1c[nH]nn1 (centres unmarked) [Example B3, 2-methyl-N-[1-(1H-1,2,3-triazol-4-yl)propyl]-8-[4-(trifluoromethyl)phenyl]-2H,8H-pyrazolo[3,4-b]indole-5-carboxamide]
100 to 10000 | CC(NC(=O)c1ccc2c(c1)c1cn(C)nc1n2-c1ccc(C(F)(F)F)cc1)c1c[nH]cn1 (centres unmarked) [Example B5, N-[1-(1H-imidazol-4-yl)ethyl]-2-methyl-8-[4-(trifluoromethyl)phenyl]-2H,8H-pyrazolo[3,4-b]indole-5-carboxamide]
100 to 10000 | Cn1cc2c3cc(C(=O)NCc4cc5ncccc5[nH]4)ccc3n(-c3ccc(C(F)(F)F)cc3)c2n1 [Example B6, 2-methyl-N-({1H-pyrrolo[3,2-b]pyridin-2-yl}methyl)-8-[4-(trifluoromethyl)phenyl]-2H,8H-pyrazolo[3,4-b]indole-5-carboxamide]
> 10000 | CCC(NC(=O)c1ccc2c(c1)c1cn(C)nc1n2-c1ccc(C(F)(F)F)cc1)c1ncc[nH]1 (centres unmarked) [Example B7, N-[1-(1H-imidazol-2-yl)propyl]-2-methyl-8-[4-(trifluoromethyl)phenyl]-2H,8H-pyrazolo[3,4-b]indole-5-carboxamide]
100 to 10000 | CC(NC(=O)c1ccc2c(c1)c1cn(C)nc1n2-c1ccc(C(F)(F)F)cc1)c1ccc[nH]1 (centres unmarked) [Example B8, 2-methyl-N-[1-(1H-pyrrol-2-yl)ethyl]-8-[4-(trifluoromethyl)phenyl]-2H,8H-pyrazolo[3,4-b]indole-5-carboxamide]
10 to 100 | Cn1cc2c3cc(C(=O)NC(CCO)c4cncs4)ccc3n(-c3ccc(C(F)(F)F)cc3)c2n1 (centres unmarked) [Example B9, N-[3-hydroxy-1-(1,3-thiazol-5-yl)propyl]-2-methyl-8-[4-(trifluoromethyl)phenyl]-2H,8H-pyrazolo[3,4-b]indole-5-carboxamide]
100 to 10000 | Cn1cc2c3cc(C(=O)N4CC5(CCCC5)CC4CO)ccc3n(-c3ccc(C(F)(F)F)cc3)c2n1 (centres unmarked) [Example B10, (2-{2-methyl-8-[4-(trifluoromethyl)phenyl]-2H,8H-pyrazolo[3,4-b]indole-5-carbonyl}-2-azaspiro[4.4]nonan-3-yl)methanol]
10 to 100 | Cn1cc2c3cc(C(=O)NCCc4c[nH]nn4)ccc3n(-c3ccc(C(F)(F)F)cc3)c2n1 [Example B11, 2-methyl-N-[2-(1H-1,2,3-triazol-4-yl)ethyl]-8-[4-(trifluoromethyl)phenyl]-2H,8H-pyrazolo[3,4-b]indole-5-carboxamide]
100 to 10000 | Cn1cc2c3cc(C(=O)N(CCO)CC4CC=CCC4)ccc3n(-c3ccc(C(F)(F)F)cc3)c2n1 (centres unmarked) [Example B12, N-[(cyclohex-3-en-1-yl)methyl]-N-(2-hydroxyethyl)-2-methyl-8-[4-(trifluoromethyl)phenyl]-2H,8H-pyrazolo[3,4-b]indole-5-carboxamide]
100 to 10000 | Cn1cc2c3cc(C(=O)N4CCCC4c4ccc[nH]4)ccc3n(-c3ccc(C(F)(F)F)cc3)c2n1 (centres unmarked) [Example B13, 2-(1-{2-methyl-8-[4-(trifluoromethyl)-phenyl]-2H,8H-pyrazolo[3,4-b]indole-5-carbonyl}pyrrolidin-2-yl)-1H-pyrrole]
100 to 10000 | CC(NC(=O)c1ccc2c(c1)c1cn(C)nc1n2-c1ccc(C(F)(F)F)cc1)c1nn(C)cc1O (centres unmarked) [Example B14, N-[1-(4-hydroxy-1-methyl-1H-pyrazol-3-yl)ethyl]-2-methyl-8-[4-(trifluoromethyl)phenyl]-2H,8H-pyrazolo[3,4-b]indole-5-carboxamide]
100 to 10000 | Cn1cc2c3cc(C(=O)NC4CC(O)C45CCOCC5)ccc3n(-c3ccc(C(F)(F)F)cc3)c2n1 (centres unmarked) [Example B16, N-{3-hydroxy-7-oxaspiro[3.5]nonan-1-yl}-2-methyl-8-[4-(trifluoromethyl)phenyl]-2H,8H-pyrazolo[3,4-b]indole-5-carboxamide]
100 to 10000 | Cn1cc2c3cc(C(=O)NCc4cc(C5CCC5)n[nH]4)ccc3n(-c3ccc(C(F)(F)F)cc3)c2n1 [Example B17, N-[(3-cyclobutyl-1H-pyrazol-5-yl)methyl]-2-methyl-8-[4-(trifluoro-methyl)phenyl]-2H,8H-pyrazolo[3,4-b]indole-5-carboxamide]
1 to 10 | Cn1cc2c3cc(C(=O)NCc4ccc(F)c(CO)c4)ccc3n(-c3ccc(C(F)(F)F)cc3)c2n1 [Example B19, N-{[4-fluoro-3-(hydroxymethyl)-phenyl]methyl}-2-methyl-8-[4-(trifluoromethyl)phenyl]-2H,8H-pyrazolo[3,4-b]indole-5-carboxamide]
> 10000 | Cn1cc2c3cc(C(=O)NCc4ncn5c4CCCC5)ccc3n(-c3ccc(C(F)(F)F)cc3)c2n1 [Example B20, N-({5H,6H,7H,8H-imidazo[1,5-a]pyridin-1-yl}methyl)-2-methyl-8-[4-(trifluoromethyl)phenyl]-2H,8H-pyrazolo[3,4-b]indole-5-carboxamide]
10 to 100 | Cc1n[nH]c(C)c1C(C)NC(=O)c1ccc2c(c1)c1cn(C)nc1n2-c1ccc(C(F)(F)F)cc1 (centres unmarked) [Example B21, N-[1-(3,5-dimethyl-1H-pyrazol-4-yl)ethyl]-2-methyl-8-[4-(trifluoromethyl)phenyl]-2H,8H-pyrazolo[3,4-b]indole-5-carboxamide]
